Data as given in US8889591B2, “Herbicidal compositions comprising 4-amino-3-chloro-5-fluoro-6-(4-chloro-2-fluoro-3-methoxyphenyl)pyridine-2-carboxylic acid or a derivative thereof and bromobutide, daimuron, oxaziclomefone or pyributicarb” (Dow Agrosciences LLC, priority 2012, dated 2014).

Test system: LEFCH
Assay: Postemergence foliar-applied greenhouse weed control, direct-seeded rice system
Type: in vivo, Leptochloa chinensis (L.) Nees
Source text: Seeds or nutlets of the desired test plant species were planted in a soil matrix prepared by mixing a loam or sandy loam soil (e.g., 28.6 percent silt, 18.8 percent clay, and 52.6 percent sand, with a pH of about 5.8 and an organic matter content of about 1.8 percent) and calcareous grit in an 80 to 20 ratio. The soil matrix was contained in plastic pots with a volume of 1 quart and a surface area of 83.6 square centimeters (cm^2). When required to ensure good germination and healthy plants, a fungicide treatment and/or other chemical or physical treatment was applied. The plants were grown for 8-22 days in a greenhouse with an approximate 14 h photoperiod which was maintained at about 29° C. during the day and 26° C. during the night. Nutrients (Peters Excel® 15-5-15 5-Ca 2-Mg and iron chelate) were applied in the irrigation solution as needed and water was added on a regular basis. Supplemental lighting was provided with overhead metal halide 1000-Watt lamps as necessary. The plants were employed for testing when they reached the first through fourth true leaf stage.
Treatments consisted of the acid or esters of 4-amino-3-chloro-5-fluoro-6-(4-chloro-2-fluoro-3-methoxy-phenyl)pyridine-2-carboxylic acid (Compound A), each formulated as an SC (suspension concentrate), and various herbicidal components alone and in combination. Forms of compound A were applied on an acid equivalent basis.
Other herbicidal components were applied on an active ingredient basis and included diamuron formulated as an EC (emulsifiable concentrate) and oxaziclomefone (technical grade material).
Treatment requirements were calculated based upon the rates being tested, the concentration of active ingredient or acid equivalent in the formulation, and a 12 mL application volume at a rate of 187 L/ha.
For treatments comprised of formulated compounds, measured amounts of compounds were placed individually in 25 mL glass vials and diluted in a volume of 1.25% (v/v) Agri-Dex® crop oil concentrated to obtain 12× stock solutions. […] Application solutions were prepared by adding an appropriate amount of each stock solution (e.g., 1 mL) and diluted to the appropriate final concentrations with the addition of 10 mL of an aqueous mixture of 1.25% (v/v) crop oil concentrate so that the final spray solutions contained 1.25+/−0.05% (v/v) crop oil concentrate.
For treatments comprised of technical compounds, weighed amounts can be placed individually in 25 mL glass vials and dissolved in a volume of 97:3 v/v acetone/DMSO to obtain 12× stock solutions. […] Application solutions can be prepared by adding an appropriate amount of each stock solution (e.g., 1 mL) and diluted to the appropriate final concentrations with the addition of 10 mL of an aqueous mixture of 1.5% (v/v) crop oil concentrate so that the final spray solutions contain 1.25% (v/v) crop oil concentrate. When technical materials are used, the concentrated stock solutions can be added to the spray solutions so that the final acetone and DMSO concentrations of the application solutions are 16.2% and 0.5%, respectively.
For treatments comprised of formulated and technical compounds, weighed amounts of the technical materials were placed individually in 25 mL glass vials and dissolved in a volume of 97:3 v/v acetone/DMSO to obtain 12× stock solutions, and measured amounts of the formulated compounds were placed individually in 25 mL glass vials and diluted in a volume of 1.5% (v/v) crop oil concentrate or water to obtain 12× stock solutions. […] Application solutions were prepared by adding an appropriate amount of each stock solution (e.g., 1 mL) and diluted to the appropriate final concentrations with the addition of an appropriate amount of an aqueous mixture of 1.5% (v/v) crop oil concentrate so that the final spray solutions contained 1.25% (v/v) crop oil concentrate. […]

For `COc1c(Cl)ccc(-c2nc(C(=O)OCc3ccccc3)c(Cl)c(N)c2F)c1F` [Compound A Benzyl Ester], the “Visual Weed Control (%) - 20 DAA LEFCH Obs” value (shortened to “Visual Weed Control (%)”) (Compound A Benzyl Ester 4.38 gae/ha alone) was 10%, the “Visual Weed Control (%)” value (Compound A Benzyl Ester 8.75 gae/ha alone) was 20% and the “Visual Weed Control (%)” value (Compound A Benzyl Ester 17.5 gae/ha alone) was 50%.
